Results published in patent US9827277B2, “Sulphated polysaccharide composition” (UNIVERSITÉ BLAISE PASCAL—CLERMONT II, priority 2012, dated 2017).

Legend:
[1] = test system: HFF (Human Foreskin Fibroblast) cells; assay: Cytotoxicity test (sulforhodamine B) on HFF cells; type: cell-based
Protocol: Culturing of HFF (Human Foreskin Fibroblast Cells in 96-Well Plate From a 75 cm^2 flask of HFF cells at confluence, the culture medium was removed, and then 2 mL of trypsin-EDTA (0.025% trypsin and 0.01% EDTA—Ethylenediaminetetraacetic acid) was added (at 37° C.). The flask was then briefly rinsed and the trypsin was removed. 2 mL of trypsin-EDTA was subsequently added and the flask was incubated for 5 minutes in an oven at 37° C.
5 ml of culture medium (minimal essential medium—MEM (PARA Laboratories GmbH)+Glutamine (2 mM)+Fungizone (2.5 μg/mL)+Penicillin (100 units/mL)+Streptomycin (100 μg/mL)+decomplemented Foetal Calf Serum 15%) was added and then the flask was rinsed with a pipette. The medium and cells were recovered in a tube. Counting on the Malassez counting chamber was then performed.
The cells were subsequently centrifuged at 200 g, for 7 minutes, and then the supernatant was removed. The pellet was taken up in the culture medium in a manner so as to obtain 10^5 cells/mL.
200 μL of this suspension per well was distributed, while leaving empty the wells of columns 1 and 12 and rows A and H. The wells that were left empty were filled with 200 μL of culture medium in order to prevent evaporation.
When the cells had reached confluence in the wells (about 48 hours), the medium was aspirated by making use of a vacuum extractor pump and then 200 μL of culture medium containing the various polysaccharides to be tested (the latter are tested at 50, 100, and 200 μg/mL) was added.
Each concentration was tested in triplicate. […]
The proteins were solubilised by using 200 μL of Tris-Base (10 mM) for 5 minutes on a plate with stirring at ambient temperature. The OD (Optical Density) at 550 nm was measured by making use of a microplate reader (Multiskan FC357, Thermo Scientific).
The mean of the OD and the standard deviation have been calculated for each sample tested in order to arrive at a conclusion with respect to the toxicity of the products.

Nosema ceranae = assay: Inhibitory activity in vivo on Nosema in honey bees
Protocol: The results presented here have been obtained from the summer honey bees.
After recovering one brood chamber frame (or more as per the needs in honey bees) from the apiary by means of a glass frame holder, the latter was placed in an oven at 34° C. for a period of 24 to 48 hours in a manner so as to allow the honey bees to emerge from their cells. Then, the young honey bees were retrieved from the frame by making use of a pair of entomologist's forceps and placed in the beekeeping boxes (supers) on the basis of 50 honey bees/box. ⅙^th of a tube stick of PseudoQueen (Contech Enterprises, Canada) was added in each of the beekeeping boxes.
Each polysaccharide treatment was carried out in triplicate (three boxes/treatment). Each test operation contained a “healthy honey bees” control (honey bees not infected and not treated), an “infected honey bees” control (honey bees infected experimentally and not treated) and a fumagillin control; with these controls also being in triplicate. […]
Over the course of the post-Infection phase (a time period of 20 days), the dead honey bees were counted and removed on a daily basis from each of the boxes in order to track and monitor mortality. […]

| SMILES | Conclusion ([1]; HFF cells, culture medium containing 20% of DMSO, 96 hours) | Viability (%) ([1]; HFF cells, positive control: culture medium containing 20% of DMSO, 96 hours of incubation) | Viability (%) ([1]; human, 96 h, 1 μg/mL) | Mortality at 20 days post-infection (%) (Nosema ceranae; honey bees infected with 125,000 N. ceranae spores, syrup supplemented with 1 μg/mL fumagillin, fed 3 days before and 20 days after infection) | Change in parasite load (decrease) (Nosema ceranae; spore count at 20 days vs infected honey bees control, syrup with 1 μg/mL fumagillin) |
| --- | --- | --- | --- | --- | --- |
| C[S+](C)[O-] [DMSO Positive Control, DMSO] | Cytotoxic: control validated | 6.8 +/− 1.4% |  |  |  |
| CO[C@@H]1[C@H](OC(=O)/C=C/C=C/C=C/C=C/C(=O)O)CC[C@]2(CO2)[C@H]1[C@@]1(C)O[C@@H]1CC=C(C)C [Fumagillin Control, fumagillin] |  |  | 99.1 +/− 12.2% | 25.9 +/− 16.7% | Decrease of 63.4% |
